From patent US20240285785A1, “TARGETING SORTILIN” (priority 2022, published 2024)

Experiment: Murine serum stability assay
Type: in vitro ADME, mouse (CD-1)
Settings: male CD-1 mouse serum, 37° C.; listed as Aro-SAR-Q15
Method: Serum was drawn from male CD-1 mice by Pharmidex. Lyophilized peptides were solubilized in DMSO and then further diluted into male mouse (CD-1) serum at 37° C. in duplicates. The reaction was incubated at 37° C. and samples extracted at 6 time points: 0, 0.16, 0.5, 1, 3, and 6 hrs. Acetonitrile (ACN) with internal standard (tolbutamide) was added to stop the incubation. Samples were centrifuged, and the supernatant was analyzed by HPLC-MS/MS for the parent compound.

Row | Murine serum stability assay, T1/2 [min] | SMILES
1 | 18.92 | CC(C)C[C@H](NC(=O)[C@H](C)NC(=O)[C@@H]1CCCN1C(=O)[C@H](CC(=O)O)NC(=O)[C@H](CCCNC(=N)N)NC(=O)[C@H](CC(C)C)NC(=O)[C@@H]1CCCN1C(=O)[C@H](C)NC(=O)[C@H](CC(=O)O)NC(=O)[C@H](Cc1c[nH]c2ccccc12)NC(=O)[C@H](CCCNC(=N)N)NC(=O)[C@@H]1CCCN1C(=O)[C@H](C)N)C(=O)N[C@@H](CCCNC(=N)N)C(=O)N[C@@H](CCC(N)=O)C(=O)N[C@H](C(=O)N[C@@H](CC1CCC1)C(=O)O)C(C)(C)C [Arb-SAR-Q15]

Same assay, conditions: male, CD-1, mouse, mouse serum, male CD-1 mouse serum, 37° C.; read-out: Murine serum stability assay, T1/2

Row | SMILES | half-life [min]
2 | CC(C)C[C@H](NC(=O)[C@H](C)NC(=O)[C@@H]1CCCN1C(=O)[C@H](CC(=O)O)NC(=O)[C@H](CCCNC(=N)N)NC(=O)[C@H](CC(C)C)NC(=O)[C@@H]1CCCN1C(=O)[C@H](C)NC(=O)[C@H](CC(=O)O)NC(=O)[C@H](Cc1c[nH]c2ccccc12)NC(=O)[C@H](CCCNC(=N)N)NC(=O)[C@@H]1CCCN1C(=O)[C@H](C)N)C(=O)N[C@@H](CCCNC(=N)N)C(=O)N[C@@H](CCC(N)=O)C(=O)N[C@@H](CC(C)C)C(=O)N[C@@H](CC(C)(C)C)C(=O)O [Arb-SAR-J05] | 10.1
3 | CC(C)C[C@H](NC(=O)[C@H](CC(C)(C)C)NC(=O)[C@H](CCC(N)=O)NC(=O)[C@H](CCCNC(=N)N)NC(=O)[C@H](CC(C)C)NC(=O)[C@H](C)NC(=O)[C@@H]1CCCN1C(=O)[C@H](CC(=O)O)NC(=O)[C@H](CCCNC(=N)N)NC(=O)[C@H](CC(C)C)NC(=O)[C@@H]1CCCN1C(=O)[C@H](C)NC(=O)[C@H](CC(=O)O)NC(=O)[C@H](Cc1c[nH]c2ccccc12)NC(=O)[C@H](CCCNC(=N)N)NC(=O)[C@@H]1CCCN1C(=O)[C@H](C)N)C(=O)O [Arb-SAR-J21] | 11
4 | CC(C)CC[C@H](NC(=O)[C@H](CCCNC(=N)N)NC(=O)[C@H](CC(C)C)NC(=O)[C@H](C)NC(=O)[C@@H]1CCCN1C(=O)[C@H](CC(=O)O)NC(=O)[C@H](CCCNC(=N)N)NC(=O)[C@H](CC(C)C)NC(=O)[C@@H]1CCCN1C(=O)[C@H](C)NC(=O)[C@H](CC(=O)O)NC(=O)[C@H](Cc1c[nH]c2ccccc12)NC(=O)[C@H](CCCNC(=N)N)NC(=O)[C@@H]1CCCN1C(=O)[C@H](C)N)C(=O)N[C@@H](CC(C)C)C(=O)N[C@@H](CC(C)C)C(=O)O [Arb-SAR-K01] | 13.8
5 | CC(C)C[C@H](NC(=O)[C@H](CC(C)C)NC(=O)[C@H](CCO)NC(=O)[C@H](CCCNC(=N)N)NC(=O)[C@H](CC(C)C)NC(=O)[C@H](C)NC(=O)[C@@H]1CCCN1C(=O)[C@H](CC(=O)O)NC(=O)[C@H](CCCNC(=N)N)NC(=O)[C@H](CC(C)C)NC(=O)[C@@H]1CCCN1C(=O)[C@H](C)NC(=O)[C@H](CC(=O)O)NC(=O)[C@H](Cc1c[nH]c2ccccc12)NC(=O)[C@H](CCCNC(=N)N)NC(=O)[C@@H]1CCCN1C(=O)[C@H](C)N)C(=O)O [Arb-SAR-K3] | 11.2
6 | CC(C)CC[C@H](NC(=O)[C@H](CCC(C)C)NC(=O)[C@H](CCC(N)=O)NC(=O)[C@H](CCCNC(=N)N)NC(=O)[C@H](CC(C)C)NC(=O)[C@H](C)NC(=O)[C@@H]1CCCN1C(=O)[C@H](CC(=O)O)NC(=O)[C@H](CCCNC(=N)N)NC(=O)[C@H](CC(C)C)NC(=O)[C@@H]1CCCN1C(=O)[C@H](C)NC(=O)[C@H](CC(=O)O)NC(=O)[C@H](Cc1c[nH]c2ccccc12)NC(=O)[C@H](CCCNC(=N)N)NC(=O)[C@@H]1CCCN1C(=O)[C@H](C)N)C(=O)O [Arb-SAR-N22] | 16.7
7 | CC(C)C[C@H](NC(=O)[C@H](C)NC(=O)[C@@H]1CCCN1C(=O)[C@H](CC(=O)O)NC(=O)[C@H](CCCNC(=N)N)NC(=O)[C@H](CC(C)C)NC(=O)[C@@H]1CCCN1C(=O)[C@H](C)NC(=O)[C@H](CC(=O)O)NC(=O)[C@H](Cc1c[nH]c2ccccc12)NC(=O)[C@H](CCCNC(=N)N)NC(=O)[C@@H]1CCCN1C(=O)[C@H](C)N)C(=O)N[C@@H](CCCNC(=N)N)C(=O)N[C@@H](CCC(N)=O)C(=O)N[C@@H](Cc1ccccc1)C(=O)N[C@@H](CC(C)(C)C)C(=O)O [Arb-SAR-P15] | 9.79
8 | CC(C)CC[C@H](NC(=O)[C@H](CCC(N)=O)NC(=O)[C@H](CCCNC(=N)N)NC(=O)[C@H](CC(C)C)NC(=O)[C@H](C)NC(=O)[C@@H]1CCCN1C(=O)[C@H](CC(=O)O)NC(=O)[C@H](CCCNC(=N)N)NC(=O)[C@H](CC(C)C)NC(=O)[C@@H]1CCCN1C(=O)[C@H](C)NC(=O)[C@H](CC(=O)O)NC(=O)[C@H](Cc1c[nH]c2ccccc12)NC(=O)[C@H](CCCNC(=N)N)NC(=O)[C@@H]1CCCN1C(=O)[C@H](C)N)C(=O)N[C@@H](CC(C)(C)C)C(=O)O [Arb-SAR-P17] | 12.8

Next, values leading:

Row | half-life [min] | SMILES
9 | 11.8 | CCCC[C@H](NC(=O)[C@H](CCC(N)=O)NC(=O)[C@H](CCCNC(=N)N)NC(=O)[C@H](CC(C)C)NC(=O)[C@H](C)NC(=O)[C@@H]1CCCN1C(=O)[C@H](CC(=O)O)NC(=O)[C@H](CCCNC(=N)N)NC(=O)[C@H](CC(C)C)NC(=O)[C@@H]1CCCN1C(=O)[C@H](C)NC(=O)[C@H](CC(=O)O)NC(=O)[C@H](Cc1c[nH]c2ccccc12)NC(=O)[C@H](CCCNC(=N)N)NC(=O)[C@@H]1CCCN1C(=O)[C@H](C)N)C(=O)N[C@@H](CC(C)(C)C)C(=O)O [Arb-SAR-P19]
10 | 9.33 | CC(C)C[C@H](NC(=O)[C@H](C)NC(=O)[C@@H]1CCCN1C(=O)[C@H](CC(=O)O)NC(=O)[C@H](CCCNC(=N)N)NC(=O)[C@H](CC(C)C)NC(=O)[C@@H]1CCCN1C(=O)[C@H](C)NC(=O)[C@H](CC(=O)O)NC(=O)[C@H](Cc1c[nH]c2ccccc12)NC(=O)[C@H](CCCNC(=N)N)NC(=O)[C@@H]1CCCN1C(=O)[C@H](C)N)C(=O)N[C@@H](CCCNC(=N)N)C(=O)N[C@@H](CCC(N)=O)C(=O)N[C@@H](CC1CC1)C(=O)N[C@@H](CC(C)(C)C)C(=O)O [Arb-SAR-P21]
11 | 9.96 | CC(C)C[C@H](NC(=O)[C@H](C)NC(=O)[C@@H]1CCCN1C(=O)[C@H](CC(=O)O)NC(=O)[C@H](CCCNC(=N)N)NC(=O)[C@H](CC(C)C)NC(=O)[C@@H]1CCCN1C(=O)[C@H](C)NC(=O)[C@H](CC(=O)O)NC(=O)[C@H](Cc1c[nH]c2ccccc12)NC(=O)[C@H](CCCNC(=N)N)NC(=O)[C@@H]1CCCN1C(=O)[C@H](C)N)C(=O)N[C@@H](CCCNC(=N)N)C(=O)N[C@@H](CCC(N)=O)C(=O)N[C@@H](CC(C)(C)C)C(=O)N[C@@H](CC(C)(C)C)C(=O)O [Arb-SAR-P22]
12 | 12.7 | CC(C)C[C@H](NC(=O)[C@H](C)NC(=O)[C@@H]1CCCN1C(=O)[C@H](CC(=O)O)NC(=O)[C@H](CCCNC(=N)N)NC(=O)[C@H](CC(C)C)NC(=O)[C@@H]1CCCN1C(=O)[C@H](C)NC(=O)[C@H](CC(=O)O)NC(=O)[C@H](Cc1c[nH]c2ccccc12)NC(=O)[C@H](CCCNC(=N)N)NC(=O)[C@@H]1CCCN1C(=O)[C@H](C)N)C(=O)N[C@@H](CCCNC(=N)N)C(=O)N[C@@H](CCC(N)=O)C(=O)N[C@H](C(=O)N[C@@H](CC(C)(C)C)C(=O)O)C(C)(C)C [Arb-SAR-P23]
13 | 10.1 | CC(C)C[C@H](NC(=O)[C@H](C)NC(=O)[C@@H]1CCCN1C(=O)[C@H](CC(=O)O)NC(=O)[C@H](CCCNC(=N)N)NC(=O)[C@H](CC(C)C)NC(=O)[C@@H]1CCCN1C(=O)[C@H](C)NC(=O)[C@H](CC(=O)O)NC(=O)[C@H](Cc1c[nH]c2ccccc12)NC(=O)[C@H](CCCNC(=N)N)NC(=O)[C@@H]1CCCN1C(=O)[C@H](C)N)C(=O)N[C@@H](CCCNC(=N)N)C(=O)N[C@@H](CCC(N)=O)C(=O)N[C@@H](CC1CCC1)C(=O)N[C@@H](CC(C)(C)C)C(=O)O [Arb-SAR-P24]
14 | 7.73 | CC(C)C[C@H](NC(=O)[C@H](C)NC(=O)[C@@H]1CCCN1C(=O)[C@H](CC(=O)O)NC(=O)[C@H](CCCNC(=N)N)NC(=O)[C@H](CC(C)C)NC(=O)[C@@H]1CCCN1C(=O)[C@H](C)NC(=O)[C@H](CC(=O)O)NC(=O)[C@H](Cc1c[nH]c2ccccc12)NC(=O)[C@H](CCCNC(=N)N)NC(=O)[C@@H]1CCCN1C(=O)[C@H](C)N)C(=O)N[C@@H](CCCNC(=N)N)C(=O)N[C@@H](CCC(N)=O)C(=O)N[C@@H](Cc1ccccc1)C(=O)N[C@@H](CC1CCC1)C(=O)O [Arb-SAR-Q7]
15 | 11.4 | CC(C)CC[C@H](NC(=O)[C@H](CCC(N)=O)NC(=O)[C@H](CCCNC(=N)N)NC(=O)[C@H](CC(C)C)NC(=O)[C@H](C)NC(=O)[C@@H]1CCCN1C(=O)[C@H](CC(=O)O)NC(=O)[C@H](CCCNC(=N)N)NC(=O)[C@H](CC(C)C)NC(=O)[C@@H]1CCCN1C(=O)[C@H](C)NC(=O)[C@H](CC(=O)O)NC(=O)[C@H](Cc1c[nH]c2ccccc12)NC(=O)[C@H](CCCNC(=N)N)NC(=O)[C@@H]1CCCN1C(=O)[C@H](C)N)C(=O)N[C@@H](CC1CCC1)C(=O)O [Arb-SAR-Q09]
16 | 14.1 | CC(C)C[C@H](NC(=O)[C@H](C)NC(=O)[C@@H]1CCCN1C(=O)[C@H](CC(=O)O)NC(=O)[C@H](CCCNC(=N)N)NC(=O)[C@H](CC(C)C)NC(=O)[C@@H]1CCCN1C(=O)[C@H](C)NC(=O)[C@H](CC(=O)O)NC(=O)[C@H](Cc1c[nH]c2ccccc12)NC(=O)[C@H](CCCNC(=N)N)NC(=O)[C@@H]1CCCN1C(=O)[C@H](C)N)C(=O)N[C@@H](CCCNC(=N)N)C(=O)N[C@@H](CCC(N)=O)C(=O)N[C@@H](CC1CC1)C(=O)N[C@@H](CC1CCC1)C(=O)O [Arb-SAR-Q13]
17 | 16.9 | CC(C)C[C@H](NC(=O)[C@H](C)NC(=O)[C@@H]1CCCN1C(=O)[C@H](CC(=O)O)NC(=O)[C@H](CCCNC(=N)N)NC(=O)[C@H](CC(C)C)NC(=O)[C@@H]1CCCN1C(=O)[C@H](C)NC(=O)[C@H](CC(=O)O)NC(=O)[C@H](Cc1c[nH]c2ccccc12)NC(=O)[C@H](CCCNC(=N)N)NC(=O)[C@@H]1CCCN1C(=O)[C@H](C)N)C(=O)N[C@@H](CCCNC(=N)N)C(=O)N[C@@H](CCC(N)=O)C(=O)N[C@H](C(=O)N[C@@H](CC1CCC1)C(=O)O)C(C)(C)C [Arb-SAR-Q15]

Same assay, conditions: male, CD-1, mouse, serum, 37° C., read-out: Murine serum stability assay, T1/2

Row | half-life [min] | SMILES
18 | 7.91 | CC(C)C[C@H](NC(=O)[C@H](CC(C)C)NC(=O)[C@H](CCC(N)=O)NC(=O)[C@H](CCCNC(=N)N)NC(=O)[C@H](CC(C)C)NC(=O)[C@H](C)NC(=O)[C@@H]1CCCN1C(=O)[C@H](Cc1ccccc1)NC(=O)[C@H](CCCNC(=N)N)NC(=O)[C@H](CC(C)C)NC(=O)[C@@H]1CCCN1C(=O)[C@H](C)NC(=O)[C@H](CC(=O)O)NC(=O)[C@H](Cc1c[nH]c2ccccc12)NC(=O)[C@H](CCCNC(=N)N)NC(=O)[C@@H]1CCCN1C(=O)[C@H](C)N)C(=O)O [Arb-SAR-C14]
